Laboratory results published in patent US10928382B2, “Microfluidic device and method for analysis of tumor cell microenvironments” (Northeastern University, priority 2014, dated 2021).

Legend:
[1] = tested on: adriamycin resistant MCF7 cells; test: LIVE/DEAD viability/cytotoxicity assay, adriamycin resistant MCF7 cell spheroids in microfluidic device (compared with 2D monolayers)
[2] = tested on: adriamycin sensitive MCF7 cells; test: LIVE/DEAD viability/cytotoxicity assay, adriamycin sensitive MCF7 cell spheroids in microfluidic device (compared with 2D monolayers); format: cell-based
Protocol: FIGS. 6A and 6B show adriamycin resistant MCF7 cell spheroids at 96 hr incubation without doxorubicin (FIG. 6A) and at 48 hr incubation with 12.8 μM doxorubicin (FIG. 6B). […] FIGS. 6C and 6D show adriamycin sensitive MCF7 cell spheroids at 96 hr incubation without doxorubicin (FIG. 6C) and at 48 hr incubation with 12.8 μM doxorubicin (FIG. 6D).

[3] = tested on: co-cultured MCF7 and HS5 cells; test: LIVE/DEAD viability assay, co-cultured MCF7 and HS5 fibroblast cell spheroids in microfluidic device; format: cell-based; conditions: 3D spheroids, doxorubicin 3200 nM and 12800 nM, FIG. 7D
[4] = 3D spheroids, doxorubicin 800 nM to 12800 nM, FIG. 7C

COc1cccc2c1C(=O)c1c(O)c3c(c(O)c1C2=O)C[C@@](O)(C(=O)CO)C[C@@H]3O[C@H]1C[C@H](N)[C@H](O)[C@H](C)O1 [doxorubicin]
cell viability, 2D monolayers versus 3D spheroids ([1]; 12.8 μM doxorubicin, p<0.05, cells more susceptible in 2D than 3D, FIG. 7A): statistically significant difference in cell viability
cell toxicity (red fluorescence, LIVE/DEAD assay) ([1]; 3D spheroids, 12.8 μM doxorubicin, 48 hr incubation, FIG. 6B): cell toxicity
survival rate in spheroids [1, 4]: high and comparable survival rates
susceptibility to doxorubicin (red fluorescent nuclei staining) versus adriamycin resistant cells ([2]; 3D spheroids, 12.8 μM doxorubicin, 48 hr incubation, FIG. 6D vs 6B): more susceptible to doxorubicin than the adriamycin resistant cells
survival rate in spheroids [2, 4]: high and comparable survival rates
cell viability, 2D monolayers versus 3D spheroids ([2]; doxorubicin 1600 nM to 12800 nM, p<0.05, FIG. 7B): statistically significant difference in cell viability
overall cell survival rate in response to doxorubicin, with fibroblasts versus MCF7 adriamycin sensitive spheroids alone [3]: significant increase in the overall cell survival rate
